Laboratory results published in article PMC9794768, “Molecular mechanism of substrate recognition by folate transporter SLC19A1” (Cell Discovery, 2022).

Key:
[1] = biological target: T1, SLC19A1 (Homo sapiens, UniProt P41440); experiment: [3H]-MTX uptake competition in HEK293F cells at […]; FSEC-based thermostability in detergent lysate; assay type: cell-based; set-up: GFP-tagged SLC19A1
T1 sequence (P41440 1-591): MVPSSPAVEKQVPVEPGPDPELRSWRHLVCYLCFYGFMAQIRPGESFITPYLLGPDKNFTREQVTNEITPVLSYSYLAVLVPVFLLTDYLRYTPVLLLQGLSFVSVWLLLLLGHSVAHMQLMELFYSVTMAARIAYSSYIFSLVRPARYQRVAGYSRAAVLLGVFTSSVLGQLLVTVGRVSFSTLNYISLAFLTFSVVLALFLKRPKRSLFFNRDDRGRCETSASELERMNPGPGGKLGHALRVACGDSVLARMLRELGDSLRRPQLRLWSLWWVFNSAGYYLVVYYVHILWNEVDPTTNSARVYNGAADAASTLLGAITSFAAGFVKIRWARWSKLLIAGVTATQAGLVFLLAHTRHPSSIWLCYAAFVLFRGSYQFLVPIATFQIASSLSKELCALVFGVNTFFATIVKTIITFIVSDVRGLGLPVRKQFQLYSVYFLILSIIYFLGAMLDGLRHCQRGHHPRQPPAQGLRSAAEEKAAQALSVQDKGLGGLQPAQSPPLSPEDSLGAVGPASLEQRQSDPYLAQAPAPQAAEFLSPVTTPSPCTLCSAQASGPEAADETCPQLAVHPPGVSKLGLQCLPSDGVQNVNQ

[2] = biological target: T1, SLC19A1; experiment: cryo-EM structure at […] Å and MST; also [3H]-MTX uptake inhibition (IC50 […]) and FSEC thermostability; assay type: binding; set-up: full-length SLC19A1 (MST); BRIL-SLC19A1/Fab/Nb (cryo-EM)
[3] = biological target: T1, SLC19A1; experiment: FSEC-based thermostability in detergent lysate; [3H]-MTX uptake competition in HEK293F cells at […]; assay type: cell-based; set-up: GFP-tagged SLC19A1

Cc1ncc(C[n+]2csc(CCOP(=O)(O)O)c2C)c(N)n1 [TMP, Thiamine monophosphate]
[3H]-MTX uptake competition in HEK293F cells at 200 μM; FSEC-based thermostabili [1]: TMP effectively competed with [^3H]-MTX in the transporter assay and enhanced the thermostability of SLC19A1

Cc1ncc(C[n+]2csc(CCO[P@](=O)(O)OP(=O)(O)O)c2C)c(N)n1 [TPP, thiamine pyrophosphate]
Kd [2]: 327 ± 76 µM

Nc1nc(=O)c2nc(CNc3ccc(C(=O)N[C@@H](CCC(=O)O)C(=O)O)cc3)cnc2[nH]1 [folate]
FSEC-based thermostability in detergent lysate; [3H]-MTX uptake competition in H [3]: the well-documented substrates 5-MTHF and folate significantly enhanced the thermostability of SLC19A1
